Laboratory results from publication PMC10518257 (Nature Cancer, 2023).
Where “and” joins values, the source holds several entries; their conditions need not be identical. Equal values may be shown once.

How the values were obtained:
LUAD-0057AS1 PDX = experiment: PDX efficacy study
LUAD-0087AS2 PDX = experiment: PDX efficacy study; settings: LUAD-0087AS2, 30 mg/kg BID, individual animals

COc1cc2nccc(Oc3ccc(NC(=O)C4(C(=O)Nc5ccc(F)cc5)CC4)cc3)c2cc1OC [Cabozantinib]
tumor shrinkage (LUAD-0057AS1 PDX; 30 mg per kg QD): did not lead to any tumor shrinkage
Area Under Curve of tumor growth, Mean (LUAD-0057AS1 PDX; 30 mg/kg QD): 1051
Tumor volume (LUAD-0057AS1 PDX; 30 mg/kg QD, day 0, individual animals): 139.24 mm3 and 130.83 mm3 and 132.84 mm3 and 134.85 mm3 and 137.16 mm3 and 136.86 mm3 and 128.59 mm3 (2×)
Tumor volume (LUAD-0057AS1 PDX; 30 mg/kg QD, day 3, individual animals): 143.69 mm3 (2×) and 141.55 mm3 and 159.83 mm3 and 157.37 mm3 and 161.94 mm3 and 155.09 mm3 and 150.43 mm3
Tumor volume (LUAD-0057AS1 PDX; 30 mg/kg QD, day 7, individual animals): 150.13 mm3 and 145.84 mm3 and 157.07 mm3 and 171.9 mm3 and 159.66 mm3 and 132.84 mm3 and 161.94 mm3 and 154.85 mm3
Tumor volume (LUAD-0057AS1 PDX; 30 mg/kg QD, day 10, individual animals): 150.13 mm3 and 154.85 mm3 (2×) and 171.06 mm3 and 197.55 mm3 and 217.15 mm3 and 132.84 mm3 and 165.92 mm3
Tumor volume (LUAD-0057AS1 PDX; 30 mg/kg QD, day 14, individual animals): 150.13 mm3 and 176.28 mm3 and 188.03 mm3 (3×) and 224.35 mm3 and 288.71 mm3 and 168.78 mm3
Tumor volume (LUAD-0057AS1 PDX; 30 mg/kg QD, day 19, individual animals): 150.13 mm3 and 183.33 mm3 and 195.09 mm3 and 204.49 mm3 and 294.92 mm3 and 176.28 mm3 and 193.69 mm3 and 188.03 mm3
Tumor volume (LUAD-0057AS1 PDX; 30 mg/kg QD, day 23, individual animals): 194.67 mm3 and 219.37 mm3 and 246.79 mm3 and 251.12 mm3 and 340.1 mm3 and 242.75 mm3 and 230.72 mm3 and 228.34 mm3
Change in Tumor Volume (LUAD-0057AS1 PDX; 30 mg/kg QD, end of study, individual tumors): 39.809% and 67.6756% and 85.7799% and 86.2217% and 147.959% and 77.371% and 79.423% and 77.5721%

COC1(C(=O)NC(C)c2ccc(-n3cc(F)cn3)nc2)CCC(c2nc(C)cc(Nc3cc(C)[nH]n3)n2)CC1 (stereo not drawn) [Prasletinib]
Tumor volume (LUAD-0087AS2 PDX; treatment day 0): 122.74 and 122.52 (2×) and 118.47 (2×)
Tumor volume (LUAD-0087AS2 PDX; treatment day 3): 116.87 and 110.97 (2×) and 118.47 and 114.83
Tumor volume (LUAD-0087AS2 PDX; treatment day 7): 100.16 and 96.62 (2×) and 101.37 and 91.61
Tumor volume (LUAD-0087AS2 PDX; treatment day 10): 100.16 and 103.77 and 96.62 and 99.78 and 95.03
Tumor volume (LUAD-0087AS2 PDX; treatment day 14): 96.88 and 83.83 and 88.25 and 99.78 and 90.28
Tumor volume (LUAD-0087AS2 PDX; treatment day 17): 103.77 and 79.42 and 83.83 (2×) and 96.62
Tumor volume (LUAD-0087AS2 PDX; treatment day 21): 90.28 and 70.82 and 74.9 and 83.83 (2×)
Tumor volume (LUAD-0087AS2 PDX; treatment day 24): 74.9 and 54.36 and 71.99 (2×) and 58.99
Tumor volume (LUAD-0087AS2 PDX; treatment day 29): 72.18 and 54.36 and 71.99 and 57.83 and 56.67
Tumor volume (LUAD-0087AS2 PDX; treatment day 32): 75.04 and 60.32 (2×) and 74.9 and 57.83
Tumor volume (LUAD-0087AS2 PDX; treatment day 35): 75.04 and 60.32 and 74.9 (2×) and 57.83
Tumor volume (LUAD-0087AS2 PDX; treatment day 38): 75.04 and 60.32 and 77.63 and 90.28 and 57.83
Tumor volume (LUAD-0087AS2 PDX; treatment day 42): 77.87 and 68.07 and 77.63 and 90.28 and 60.32
Tumor volume (LUAD-0087AS2 PDX; treatment day 45): 77.87 and 68.07 and 70.69 (2×) and 60.32
